Experimental data from patent US12643922B2 (VIRGINIA COMMONWEALTH UNIVERSITY, priority 2021, dated 2026).
Like-named read-outs stand apart in the source and are kept apart here.

Experiments:
[1] = system: UA sulfation; experiment: Inhibition of UA sulfation (formation of UA-sulfate by HPLC-MS); format: biochemical; conditions: UA concentration 2 μM, triplicate
Method: FIG. 5. IC50 of glycyrrhetinic acid. UA concentration was 2 μM. Determination was done in triplicate.
Table 1. IC50 values for several inhibitors of UA sulfation. UA concentration was 2 μM. Determinations were done in triplicate, and formation of UA-sulfate was determined by HPLC-MS followed by nonlinear regression with the Hill equation.

[2] = colour and water solubility with time
[3] = Solubility of ursolic acid salts in hydrophilic solvents (clear saturated solution)
Method: The salts were weighed, mixed with the solvent, and incubated to reach clear saturated solution (37° C. for water and ethanol; 55° C. for PEG 400 and glycerol).

[4] = cited from earlier work
[5] = cited from earlier work; remark: listed apart in the source
[6] = background statement; cited from earlier work

| Structure (SMILES) | Hill slope ([1]; Hill equation) | IC50 ([1]; Hill equation, read-out: IC50) [µM] | also measured |
| --- | --- | --- | --- |
| CC(=O)O[C@H]1CC[C@@]2(C)C(=CC(=O)[C@@H]3[C@@H]2CC[C@]2(C)C(=O)CC[C@@H]32)C1 [7-oxo-DHEA acetate] | 1.2 ± 0.06 | 20.2 ± 3.6 |  |
| C[C@]12CC[C@H](O)CC1=CC(=O)C1C2CC[C@]2(C)C(=O)CCC12 (some centres unmarked) [7-oxo-DHEA] | 1.2 ± 0.4 | 38.1 ± 1.2 |  |
| C[C@]12CC[C@H](O)CC1=CC[C@@H]1[C@@H]2CC[C@]2(C)C(=O)CC[C@@H]12 [DHEA, dehydroepiandrosterone] | 1.4 ± 0.1 | 1.2 ± 0.1 |  |
| CC1(C)[C@@H](O)CC[C@]2(C)[C@H]3C(=O)C=C4[C@@H]5C[C@@](C)(C(=O)O)CC[C@]5(C)CC[C@@]4(C)[C@]3(C)CC[C@@H]12 [Glycyrrhetinic acid] | 4.8 ± 3.5 | 14 ± 0.2 | IC50 ([1]; 95% CI, read-out: IC50 (FIG. 5)): 18.6 µM |
| C=C1C[C@@]23CC[C@H]4[C@@](C)(CCC[C@@]4(C)C(=O)O)[C@@H]2CC[C@]1(O)C3 [Steviol] | 1.4 ± 0.1 | 11.8 ± 1.8 |  |
| C[C@H]1CC[C@]2(NC1)O[C@H]1C[C@H]3[C@@H]4CC[C@H]5C[C@@H](O)CC[C@]5(C)[C@H]4CC[C@]3(C)[C@H]1[C@@H]2C [Tomatidine] | 0.5 ± 0.03 | 84.8 ± 5.1 |  |
| C[C@H]1[C@H](C)CC[C@]2(C(=O)O)CC[C@]3(C)C(=CC[C@@H]4[C@@]5(C)CC[C@H](O)C(C)(C)[C@@H]5CC[C@]43C)[C@H]12 [UAdC-O, ursolic acid dicholine complex] |  |  | stability [2]: unstable |
| C[C@H]1[C@H](C)CC[C@]2(C(=O)O)CC[C@]3(C)C(=CC[C@@H]4[C@@]5(C)CC[C@H](O)C(C)(C)[C@@H]5CC[C@]43C)[C@H]12 [UAdC-W, ursolic acid dicholine hydroxide hydrated complex] |  |  | stability [2]: stable |
| C[C@H]1[C@H](C)CC[C@]2(C(=O)[O-])CC[C@]3(C)C(=CC[C@@H]4[C@@]5(C)CC[C@H](O)C(C)(C)[C@@H]5CC[C@]43C)[C@H]12.C[N+](C)(C)CCO [UAmC, monocholine ursolate] |  |  | PEG400 solubility compared to UAK ([3]; PEG400, data not shown): lower solubility; ethanol solubility, comparison ([3]; ethanol, FIG. 1B): less than UAK |
| C[C@@H]1CC[C@]2(C(=O)O)CC[C@]3(C)C(=CCC4[C@@]5(C)CC[C@H](O)C(C)(C)C5CC[C@]43C)C2[C@H]1C (some centres unmarked) [Ursolic acid] |  |  | pKa of carboxylic acid [4]: 4.7; oral bioavailability [5]: less than 1%; solubility in water [6]: less than 1 μg/mL |
